The source of these data is patent US9932314B2, “Pyrazole compounds and their use as T-type calcium channel blockers” (IDORSIA PHARMACEUTICALS LTD, priority 2015, dated 2018).

The structures appear in SMILES notation.

For the assay, the target named is T1, voltage-dependent T-type calcium channel subunit alpha-1G (Cav3.2) (Homo sapiens, UniProt O95180).
T1 construct: expressed in transfected cells; host or cells: HEK293
Put plainly: FLIPR calcium flux assay, HEK293 cells recombinantly expressing Cav3.2. The following applies: Cav3.2-channel, Fluo-4-AM, 3 min incubation, stimulation with 10 mM CaCl2. Format: cell-based. In outline:
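HEK293 cells stably expressing human Cav3.2 were loaded with Fluo-4-AM. Compounds diluted in TEAC buffer (pH 7.2) were preincubated for 3 min, then Ca2+ entry was triggered by 10 mM final CaCl2. Inhibition curves were fitted sigmoidally to the area under the fluorescence trace.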
(Calcium flux is commonly read through the fluorescence of an indicator in the cells.)

T1 sequence (O95180 whole entry): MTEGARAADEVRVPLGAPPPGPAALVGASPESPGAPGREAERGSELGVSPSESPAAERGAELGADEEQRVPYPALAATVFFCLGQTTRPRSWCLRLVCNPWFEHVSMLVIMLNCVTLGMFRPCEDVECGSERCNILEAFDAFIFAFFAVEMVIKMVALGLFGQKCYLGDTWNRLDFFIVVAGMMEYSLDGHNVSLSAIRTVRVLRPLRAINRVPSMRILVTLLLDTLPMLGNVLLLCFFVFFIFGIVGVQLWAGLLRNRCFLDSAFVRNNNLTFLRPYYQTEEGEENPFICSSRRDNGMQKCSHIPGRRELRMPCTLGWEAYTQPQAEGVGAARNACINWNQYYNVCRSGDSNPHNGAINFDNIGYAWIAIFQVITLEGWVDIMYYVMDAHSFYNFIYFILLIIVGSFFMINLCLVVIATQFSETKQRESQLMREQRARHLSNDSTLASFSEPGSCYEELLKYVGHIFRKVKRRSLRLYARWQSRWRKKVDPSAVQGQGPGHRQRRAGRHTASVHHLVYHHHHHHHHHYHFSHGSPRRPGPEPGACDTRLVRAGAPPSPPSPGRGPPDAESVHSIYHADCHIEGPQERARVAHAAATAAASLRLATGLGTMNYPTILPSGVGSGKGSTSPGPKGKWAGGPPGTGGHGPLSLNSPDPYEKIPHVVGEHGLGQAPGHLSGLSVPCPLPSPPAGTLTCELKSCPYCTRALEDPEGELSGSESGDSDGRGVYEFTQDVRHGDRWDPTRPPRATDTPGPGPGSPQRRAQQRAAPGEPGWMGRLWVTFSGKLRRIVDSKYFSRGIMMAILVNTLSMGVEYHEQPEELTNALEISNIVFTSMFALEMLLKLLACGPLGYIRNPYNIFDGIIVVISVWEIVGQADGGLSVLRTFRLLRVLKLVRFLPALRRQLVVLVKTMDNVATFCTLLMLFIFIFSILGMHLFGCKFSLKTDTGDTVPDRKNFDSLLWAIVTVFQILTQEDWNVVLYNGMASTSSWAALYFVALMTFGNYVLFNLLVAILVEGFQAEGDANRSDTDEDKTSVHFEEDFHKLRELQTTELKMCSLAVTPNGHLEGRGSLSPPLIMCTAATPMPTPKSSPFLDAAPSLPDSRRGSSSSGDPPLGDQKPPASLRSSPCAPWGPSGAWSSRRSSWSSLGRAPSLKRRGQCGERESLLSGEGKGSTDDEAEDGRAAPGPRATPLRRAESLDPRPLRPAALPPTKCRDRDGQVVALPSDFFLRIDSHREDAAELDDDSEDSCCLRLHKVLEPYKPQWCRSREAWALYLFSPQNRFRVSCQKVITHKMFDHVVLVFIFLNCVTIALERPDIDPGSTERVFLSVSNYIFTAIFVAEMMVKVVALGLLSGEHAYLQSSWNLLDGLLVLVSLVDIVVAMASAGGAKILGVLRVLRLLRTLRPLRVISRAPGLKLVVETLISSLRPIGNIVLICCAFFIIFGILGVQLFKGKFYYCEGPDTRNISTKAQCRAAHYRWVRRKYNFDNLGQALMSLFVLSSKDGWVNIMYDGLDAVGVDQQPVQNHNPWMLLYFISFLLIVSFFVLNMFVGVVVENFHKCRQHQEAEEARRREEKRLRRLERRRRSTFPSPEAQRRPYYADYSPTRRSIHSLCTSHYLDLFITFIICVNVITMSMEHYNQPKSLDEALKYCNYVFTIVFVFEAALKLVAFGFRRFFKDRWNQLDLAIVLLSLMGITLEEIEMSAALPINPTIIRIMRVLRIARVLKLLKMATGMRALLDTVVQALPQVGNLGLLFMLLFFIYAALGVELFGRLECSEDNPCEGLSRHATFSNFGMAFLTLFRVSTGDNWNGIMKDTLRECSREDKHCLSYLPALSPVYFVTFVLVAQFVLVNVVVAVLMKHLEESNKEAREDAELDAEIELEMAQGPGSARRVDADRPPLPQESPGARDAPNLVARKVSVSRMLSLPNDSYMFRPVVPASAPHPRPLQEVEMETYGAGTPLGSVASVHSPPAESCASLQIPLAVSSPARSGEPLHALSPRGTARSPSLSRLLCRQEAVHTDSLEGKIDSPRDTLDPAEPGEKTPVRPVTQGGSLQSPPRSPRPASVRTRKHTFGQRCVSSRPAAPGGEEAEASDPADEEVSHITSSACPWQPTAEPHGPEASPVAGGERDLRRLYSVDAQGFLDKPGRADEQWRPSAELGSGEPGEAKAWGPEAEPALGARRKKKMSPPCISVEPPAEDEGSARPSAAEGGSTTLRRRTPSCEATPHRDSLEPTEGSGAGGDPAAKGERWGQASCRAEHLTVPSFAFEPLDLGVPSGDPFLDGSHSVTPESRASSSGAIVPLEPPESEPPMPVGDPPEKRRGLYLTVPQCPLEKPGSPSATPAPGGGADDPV

For the compound `CCN(CC)c1ccc(CC(=O)Nc2ccn(Cc3ccc(C#N)cn3)n2)cn1` [Example 123, N-[1-(5-Cyano-pyridin-2-ylmethyl)-1H-pyrazol-3-yl]-2-(6-diethylamino-pyridin-3-yl)-acetamide], the IC50 – broadly, the concentration needed to halve the response being measured – is 1270 nM.

Regarding `CCN(CC)c1ccc(CC(=O)Nc2ccn(Cc3ccc(F)c(F)c3)n2)cn1` [Example 124, 2-(6-Diethylamino-pyridin-3-yl)-N-[1-(3,4-difluoro-benzyl)-1H-pyrazol-3-yl]-acetamide], the IC50 was 9.9 nM.

Turning to `COCCN(C)c1ccc(CC(=O)Nc2ccn(Cc3ccc(OC)cc3)n2)cc1` [Example 125, N-[1-(4-Methoxy-benzyl)-1H-pyrazol-3-yl]-2-{4-[(2-methoxy-ethyl)-methyl-amino]-phenyl}-acetamide], the IC50 was found to be 64 nM.

For the compound `COCCN(C)c1ccc(CC(=O)Nc2ccn(Cc3ccc(F)c(F)c3)n2)cc1` [Example 126], the IC50 was found to be 3.4 nM.

Take `COCCN(C)c1ccc(CC(=O)Nc2ccn(Cc3ccc(C#N)cc3)n2)cc1` [Example 127, N-[1-(4-Cyano-benzyl)-1H-pyrazol-3-yl]-2-{4-[(2-methoxy-ethyl)-methyl-amino]-phenyl}-acetamide]: the IC50 came out at 27 nM.

For `COCCN(C)c1ccc(CC(=O)Nc2ccn(Cc3ccc(F)cc3)n2)cc1` [Example 128, N-[1-(4-Fluoro-benzyl)-1H-pyrazol-3-yl]-2-{4-[(2-methoxy-ethyl)-methyl-amino]-phenyl}-acetamide], the IC50 was found to be 9.7 nM.

On to `CCN(C)c1ccc(CC(=O)Nc2ccn(Cc3ccc(OC)cc3)n2)cc1` [Example 129, 2-[4-(Ethyl-methyl-amino)-phenyl]-N-[1-(4-methoxy-benzyl)-1H-pyrazol-3-yl]-acetamide], for which the IC50 was 128 nM.

With `CCN(C)c1ccc(CC(=O)Nc2ccn(Cc3ccc(F)c(F)c3)n2)cc1` [Example 130, N-[1-(3,4-Difluoro-benzyl)-1H-pyrazol-3-yl]-2-[4-(ethyl-methyl-amino)-phenyl]-acetamide], the IC50 stood at 293 nM.

For `COc1ccc(Cn2ccc(NC(=O)Cc3ccc(C(C)C)cc3)n2)nc1` [Example 131, 2-(4-Isopropyl-phenyl)-N-[1-(5-methoxy-pyridin-2-ylmethyl)-1H-pyrazol-3-yl]-acetamide], the IC50 turned out to be 88 nM.

For `Cc1nc(Cn2ccc(NC(=O)Cc3ccc(C(C)C)cc3)n2)ccc1C#N` [Example 132, N-[1-(5-Cyano-6-methyl-pyridin-2-ylmethyl)-1H-pyrazol-3-yl]-2-(4-isopropyl-phenyl)-acetamide], the IC50 amounted to 51 nM.

On to `CC(C)c1ccc(CC(=O)Nc2ccn(Cc3ccc(C#N)c(C4CC4)n3)n2)cc1` [Example 133, N-[1-(5-Cyano-6-cyclopropyl-pyridin-2-ylmethyl)-1H-pyrazol-3-yl]-2-(4-isopropyl-phenyl)-acetamide], for which the IC50 is 191 nM.

Regarding `CC(C)Cc1nc(Cn2ccc(NC(=O)Cc3ccc(C(C)C)cc3)n2)ccc1C#N` [Example 134, N-[1-(5-Cyano-6-isobutyl-pyridin-2-ylmethyl)-1H-pyrazol-3-yl]-2-(4-isopropyl-phenyl)-acetamide], the IC50 came out at 428 nM.

Turning to `Cc1nc2ccc(CC(=O)Nc3ccn(Cc4ccc(F)c(F)c4)n3)cc2[nH]1` [Example 135, N-[1-(3,4-Difluoro-benzyl)-1H-pyrazol-3-yl]-2-(2-methyl-3H-benzoimidazol-5-yl)-acetamide], the IC50 is 247 nM.

For `Cc1nc2ccc(CC(=O)Nc3ccn(Cc4ccc(C#N)cc4)n3)cc2[nH]1` [Example 136, N-[1-(4-Cyano-benzyl)-1H-pyrazol-3-yl]-2-(2-methyl-3H-benzoimidazol-5-yl)-acetamide], the IC50 turned out to be 1570 nM.

Regarding `Cc1nc2ccc(CC(=O)Nc3ccn(Cc4ccc(F)cc4)n3)cc2[nH]1` [Example 137, N-[1-(4-Fluoro-benzyl)-1H-pyrazol-3-yl]-2-(2-methyl-3H-benzoimidazol-5-yl)-acetamide], the IC50 stood at 313 nM.

Turning to `N#Cc1ccc(Cn2ccc(NC(=O)Cc3ccc(N4CC[C@@H](F)C4)nc3)n2)nc1` [Example 138, N-[1-(5-Cyano-pyridin-2-ylmethyl)-1H-pyrazol-3-yl]-2-[6-((R)-3-fluoro-pyrrolidin-1-yl)-pyridin-3-yl]-acetamide], the IC50 came to 756 nM.

With `N#Cc1ccc(Cn2ccc(NC(=O)Cc3ccc(N4CC[C@@H](F)C4)nc3)n2)cc1` [Example 140, N-[1-(4-Cyano-benzyl)-1H-pyrazol-3-yl]-2-[6-((R)-3-fluoro-pyrrolidin-1-yl)-pyridin-3-yl]-acetamide], the IC50 turned out to be 176 nM.

For `O=C(Cc1ccc(N2CC[C@@H](F)C2)nc1)Nc1ccn(Cc2ccc(F)cc2)n1` [Example 141, N-[1-(4-Fluoro-benzyl)-1H-pyrazol-3-yl]-2-[6-((R)-3-fluoro-pyrrolidin-1-yl)-pyridin-3-yl]-acetamide], the IC50 was 35 nM.

Regarding `N#Cc1ccc(Cn2ccc(NC(=O)Cc3ccc(N4CC(F)(F)C4)nc3)n2)nc1` [Example 142, N-[1-(5-Cyano-pyridin-2-ylmethyl)-1H-pyrazol-3-yl]-2-[6-(3,3-difluoro-azetidin-1-yl)-pyridin-3-yl]-acetamide], the IC50 is 185 nM.

Turning to `O=C(Cc1ccc(N2CC(F)(F)C2)nc1)Nc1ccn(Cc2ccc(F)c(F)c2)n1` [Example 143, 2-[6-(3,3-Difluoro-azetidin-1-yl)-pyridin-3-yl]-N-[1-(3,4-difluoro-benzyl)-1H-pyrazol-3-yl]-acetamide], the IC50 worked out at 19 nM.

`N#Cc1ccc(Cn2ccc(NC(=O)Cc3ccc(N4CC(F)(F)C4)nc3)n2)cc1` [Example 144, N-[1-(4-Cyano-benzyl)-1H-pyrazol-3-yl]-2-[6-(3,3-difluoro-azetidin-1-yl)-pyridin-3-yl]-acetamide]: the IC50 is 160 nM.

Regarding `O=C(Cc1ccc(N2CC(F)(F)C2)nc1)Nc1ccn(Cc2ccc(F)cc2)n1` [Example 145, 2-[6-(3,3-Difluoro-azetidin-1-yl)-pyridin-3-yl]-N-[1-(4-fluoro-benzyl)-1H-pyrazol-3-yl]-acetamide], the IC50 came out at 44 nM.

In the case of `COc1ccc(Cn2ccc(NC(=O)Cc3ccc(N4CC(F)(F)C4)nc3)n2)cc1` [Example 146, 2-[6-(3,3-Difluoro-azetidin-1-yl)-pyridin-3-yl]-N-[1-(4-methoxy-benzyl)-1H-pyrazol-3-yl]-acetamide], the IC50 stood at 136 nM.

Consider `CC(C)Cc1ccc(CC(=O)Nc2ccn(Cc3ccc(F)cc3)n2)cc1` [Example 147, N-[1-(4-Fluoro-benzyl)-1H-pyrazol-3-yl]-2-(4-isobutyl-phenyl)-acetamide], for which the IC50 worked out at 13 nM.

Regarding `CC(C)c1ccc(CC(=O)Nc2ccn(Cc3ccc(C#N)c(F)n3)n2)cc1` [Example 148, N-[1-(5-Cyano-6-fluoro-pyridin-2-ylmethyl)-1H-pyrazol-3-yl]-2-(4-isopropyl-phenyl)-acetamide], the IC50 was 7.6 nM.

`CN(C)c1ccc(CC(=O)Nc2ccn(Cc3ccc(F)cn3)n2)cc1` [Example 149, 2-(4-Dimethylamino-phenyl)-N-[1-(5-fluoro-pyridin-2-ylmethyl)-1H-pyrazol-3-yl]-acetamide]: the IC50 was found to be 85 nM.

Consider `CN(C)c1ccc(CC(=O)Nc2ccn(Cc3ccc(F)cn3)n2)cn1` [Example 150, 2-(6-Dimethylamino-pyridin-3-yl)-N-[1-(5-fluoro-pyridin-2-ylmethyl)-1H-pyrazol-3-yl]-acetamide], for which the IC50 came out at 682 nM.
